Measured values reported in PubChem BioAssay (NCI).
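Method: 48-hour compound exposure of cells in 96-well plates, five concentrations, linear interpolation of endpoints. Abbreviation: GI50, concentration required for 50% inhibition of growth. TGI denotes the concentration required for complete inhibition of growth.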

Experiments:
Assay in all cases: growth of human tumour cells (NCI), 48 h
SF-268 CNS = test system: SF-268 CNS
SW-620 colon = test system: SW-620 colon
TK-10 renal = test system: TK-10 renal
SN12C renal = test system: SN12C renal
SNB-75 CNS = test system: SNB-75 CNS
NCI-H460 lung = test system: NCI-H460 lung
MCF7 breast = test system: MCF7 breast
KM12 colon = test system: KM12 colon
A498 renal = test system: A498 renal
MOLT-4 leukemia = test system: MOLT-4 leukemia
SK-MEL-28 melanoma = test system: SK-MEL-28 melanoma
HT29 colon = test system: HT29 colon
HOP-92 NSCLC = test system: HOP-92 NSCLC
UACC-257 melanoma = test system: UACC-257 melanoma
CCRF-CEM leukemia = test system: CCRF-CEM leukemia
OVCAR-3 ovarian = test system: OVCAR-3 ovarian
MDA-MB-231 breast = test system: MDA-MB-231 breast
SR leukemia = test system: SR leukemia
HCT-116 colon = test system: HCT-116 colon
M14 melanoma = test system: M14 melanoma
A549 NSCLC = test system: A549 NSCLC
NCI-H522 lung = test system: NCI-H522 lung
RXF 393 renal = test system: RXF 393 renal
EKVX NSCLC = test system: EKVX NSCLC
SNB-19 CNS = test system: SNB-19 CNS
UO-31 renal = test system: UO-31 renal
HL-60(TB) leukemia = test system: HL-60(TB) leukemia
DU-145 prostate = test system: DU-145 prostate
U251 CNS = test system: U251 CNS
LOX IMVI melanoma = test system: LOX IMVI melanoma
K-562 leukemia = test system: K-562 leukemia
COLO 205 colon = test system: COLO 205 colon
MALME-3M melanoma = test system: MALME-3M melanoma
IGROV1 ovarian = test system: IGROV1 ovarian
HS 578T breast = test system: HS 578T breast
HOP-62 NSCLC = test system: HOP-62 NSCLC
HCT-15 colon = test system: HCT-15 colon
BT-549 breast = test system: BT-549 breast
CAKI-1 renal = test system: CAKI-1 renal
OVCAR-5 ovarian = test system: OVCAR-5 ovarian
HCC-2998 colon = test system: HCC-2998 colon
NCI-H226 lung = test system: NCI-H226 lung
RPMI-8226 leukemia = test system: RPMI-8226 leukemia
MDA-MB-435 = test system: MDA-MB-435
786-0 renal = test system: 786-0 renal
UACC-62 melanoma = test system: UACC-62 melanoma
SF-295 CNS = test system: SF-295 CNS
SK-MEL-2 melanoma = test system: SK-MEL-2 melanoma
SK-OV-3 ovarian = test system: SK-OV-3 ovarian
SK-MEL-5 melanoma = test system: SK-MEL-5 melanoma
PC-3 prostate = test system: PC-3 prostate
ACHN renal = test system: ACHN renal
OVCAR-4 ovarian = test system: OVCAR-4 ovarian
NCI/ADR-RES ovarian = test system: NCI/ADR-RES ovarian
OVCAR-8 ovarian = test system: OVCAR-8 ovarian
T-47D breast = test system: T-47D breast
SF-539 CNS = test system: SF-539 CNS
NCI-H23 lung = test system: NCI-H23 lung

Compound `O=c1[nH]c(Sc2sc3ccc(Cl)cc3c2CBr)nc(=S)[nH]1` has a GI50 (SF-268 CNS) of over 100 µM, a TGI (SF-268 CNS) of over 100 µM and a GI50 (SW-620 colon) of over 100 µM. For the same compound, the TGI (SW-620 colon) was over 100 µM, the GI50 (TK-10 renal) was over 100 µM and the TGI (TK-10 renal) was over 100 µM. The GI50 (SN12C renal) was over 100 µM, the TGI (SN12C renal) was over 100 µM and the GI50 (SNB-75 CNS) was over 100 µM. For the same compound, the TGI (SNB-75 CNS) was over 100 µM, the GI50 (NCI-H460 lung) was over 100 µM and the TGI (NCI-H460 lung) was over 100 µM. For the same compound, the GI50 (MCF7 breast) was over 100 µM, the TGI (MCF7 breast) was over 100 µM and the GI50 (KM12 colon) was over 100 µM. For the same compound, the TGI (KM12 colon) was over 100 µM, the GI50 (A498 renal) was over 100 µM and the TGI (A498 renal) was over 100 µM. The GI50 (MOLT-4 leukemia) was 99.1 µM, the TGI (MOLT-4 leukemia) was over 100 µM and the GI50 (SK-MEL-28 melanoma) was over 100 µM. It also gave a TGI (SK-MEL-28 melanoma) of over 100 µM, a GI50 (HT29 colon) of over 100 µM and a TGI (HT29 colon) of over 100 µM. For the same compound, the GI50 (HOP-92 NSCLC) was over 100 µM, the TGI (HOP-92 NSCLC) was over 100 µM and the GI50 (UACC-257 melanoma) was over 100 µM. The TGI (UACC-257 melanoma) was over 100 µM, the GI50 (CCRF-CEM leukemia) was over 100 µM and the TGI (CCRF-CEM leukemia) was over 100 µM. For the same compound, the GI50 (OVCAR-3 ovarian) was over 100 µM, the TGI (OVCAR-3 ovarian) was over 100 µM and the GI50 (MDA-MB-231 breast) was over 100 µM. It also gave a TGI (MDA-MB-231 breast) of over 100 µM, a GI50 (SR leukemia) of over 100 µM and a TGI (SR leukemia) of over 100 µM. It also gave a GI50 (HCT-116 colon) of over 100 µM, a TGI (HCT-116 colon) of over 100 µM and a GI50 (M14 melanoma) of over 100 µM. The TGI (M14 melanoma) was over 100 µM, the GI50 (A549 NSCLC) was over 100 µM and the TGI (A549 NSCLC) was over 100 µM. It also gave a GI50 (NCI-H522 lung) of over 63.8 µM, a TGI (NCI-H522 lung) of over 100 µM and a GI50 (RXF 393 renal) of over 81.7 µM. The TGI (RXF 393 renal) was over 100 µM, the GI50 (EKVX NSCLC) was over 100 µM and the TGI (EKVX NSCLC) was over 100 µM. For the same compound, the GI50 (SNB-19 CNS) was over 100 µM, the TGI (SNB-19 CNS) was over 100 µM and the GI50 (UO-31 renal) was over 100 µM. It also gave a TGI (UO-31 renal) of over 100 µM, a GI50 (HL-60(TB) leukemia) of over 100 µM and a TGI (HL-60(TB) leukemia) of over 100 µM. It also gave a GI50 (DU-145 prostate) of over 100 µM, a TGI (DU-145 prostate) of over 100 µM and a GI50 (U251 CNS) of over 100 µM. The TGI (U251 CNS) was over 100 µM, the GI50 (LOX IMVI melanoma) was over 100 µM and the TGI (LOX IMVI melanoma) was over 100 µM. For the same compound, the GI50 (K-562 leukemia) was over 100 µM, the TGI (K-562 leukemia) was over 100 µM and the GI50 (COLO 205 colon) was over 100 µM. The TGI (COLO 205 colon) was over 100 µM, the GI50 (MALME-3M melanoma) was over 100 µM and the TGI (MALME-3M melanoma) was over 100 µM. The GI50 (IGROV1 ovarian) was over 100 µM, the TGI (IGROV1 ovarian) was over 100 µM and the GI50 (HS 578T breast) was over 100 µM. For the same compound, the TGI (HS 578T breast) was over 100 µM, the GI50 (HOP-62 NSCLC) was over 100 µM and the TGI (HOP-62 NSCLC) was over 100 µM. The GI50 (HCT-15 colon) was over 100 µM, the TGI (HCT-15 colon) was over 100 µM and the GI50 (BT-549 breast) was over 100 µM. It also gave a TGI (BT-549 breast) of over 100 µM, a GI50 (CAKI-1 renal) of over 100 µM and a TGI (CAKI-1 renal) of over 100 µM. It also gave a GI50 (OVCAR-5 ovarian) of over 100 µM, a TGI (OVCAR-5 ovarian) of over 100 µM and a GI50 (HCC-2998 colon) of over 100 µM. The TGI (HCC-2998 colon) was over 100 µM, the GI50 (NCI-H226 lung) was over 100 µM and the TGI (NCI-H226 lung) was over 100 µM. It also gave a GI50 (RPMI-8226 leukemia) of over 100 µM, a TGI (RPMI-8226 leukemia) of over 100 µM and a GI50 (MDA-MB-435) of over 100 µM. For the same compound, the TGI (MDA-MB-435) was over 100 µM, the GI50 (786-0 renal) was over 100 µM and the TGI (786-0 renal) was over 100 µM. For the same compound, the GI50 (UACC-62 melanoma) was over 100 µM, the TGI (UACC-62 melanoma) was over 100 µM and the GI50 (SF-295 CNS) was over 100 µM. The TGI (SF-295 CNS) was over 100 µM, the GI50 (SK-MEL-2 melanoma) was over 100 µM and the TGI (SK-MEL-2 melanoma) was over 100 µM. It also gave a GI50 (SK-OV-3 ovarian) of over 100 µM, a TGI (SK-OV-3 ovarian) of over 100 µM and a GI50 (SK-MEL-5 melanoma) of over 100 µM. For the same compound, the TGI (SK-MEL-5 melanoma) was over 100 µM, the GI50 (PC-3 prostate) was over 100 µM and the TGI (PC-3 prostate) was over 100 µM. It also gave a GI50 (ACHN renal) of over 100 µM, a TGI (ACHN renal) of over 100 µM and a GI50 (OVCAR-4 ovarian) of over 100 µM. For the same compound, the TGI (OVCAR-4 ovarian) was over 100 µM, the GI50 (NCI/ADR-RES ovarian) was over 100 µM and the TGI (NCI/ADR-RES ovarian) was over 100 µM. The GI50 (OVCAR-8 ovarian) was over 100 µM, the TGI (OVCAR-8 ovarian) was over 100 µM and the GI50 (T-47D breast) was over 100 µM. The TGI (T-47D breast) was over 100 µM, the GI50 (SF-539 CNS) was over 100 µM and the TGI (SF-539 CNS) was over 100 µM. It also gave a GI50 (NCI-H23 lung) of over 100 µM and a TGI (NCI-H23 lung) of over 100 µM.
